The subject of series [1] is FGF plus IL-1β-stimulated proliferation of human lung fibroblasts from patients with IPF. As to the kind of experiment: Cell proliferation assay (BrdU incorporation), Experiment B. The class given is cell-based. To be noted: for IC50: n=5 donors; for IC50 of PDE4 inhibitor alone compared to IC50 of its combination with Nintedanib (proliferation): IC50 alone / IC50 with 100 nMol/L Nintedanib; for effect of the combination with Nintedanib on inhibition of fibroblast proliferation versus calculated additive curve: measured curve with 100 nMol/L Nintedanib compared with calculated additive curve (Poch & Holzmann). The protocol: (§1) Lung fibroblasts of IPF-patients (IPF-LF cells) grown in 96-well plates were incubated for min with different concentrations of the PDE4 inhibitors “Compound of formula III”, “Apremilast” or “Roflumilast-N-Oxide” or with a combination of each of the aforementioned PDE4-inhibitors with Nintedanib.
(§2) After compound incubation cells were stimulated with the assay-relevant stimulus and incubated for the assay—relevant time in the presence of the test compounds.
BrdU incorporated in the DNA of proliferating cells was determined by ELISA. BrdU is an analog of the DNA precursor thymidine. In proliferating cells, the DNA has to be replicated before the division can take place. If BrdU is added to the cell culture, proliferating cells will incorporate it into their DNA just like they would incorporate thymidine. The amount of BrdU in the DNA of cells can be detected with specific anti-BrdU fluorescent antibodies followed by flow cytometry or by cellular ELISA with monoclonal antibodies against BrdU.
IPF-lung fibroblasts (passage 5 to 8) were seeded in 96-well cell culture plates at 2500 cells/well with 100 μL/well FBM+supplements. 24 h after seeding the cells were washed once with FBM medium without supplements and then kept in this medium for 24 h starvation.
In experiment B1) the PDE4B-inhibitor of formula III was used as a “test compound” • in rising concentrations either alone (see full circles and black solid curve in FIG. 4) or • in rising concentrations together with a fixed concentration of 100 nMol/L of Nintedanib (see empty circles and grey solid line in FIG. 4).
In experiment B2) Apremilast was used as a “test compound” • in rising concentrations either alone (see full circles and black solid curve in FIG. 5) or • in rising concentrations together with a fixed concentration of 100 nMol/L of Nintedanib (see empty circles and grey solid line in FIG. 5).
In experiment B3) Roflumilast-N-oxide was used as a “test compound” • in rising concentrations either alone (see full circles and black solid curve in FIG. 6) or • in rising concentrations together with a fixed concentration of 100 nMol/L of Nintedanib (see empty circles and grey solid line in FIG. 6).
All test compounds were prepared 1000× in 0.1 mmol/L HCl or DMSO and a 1:3.16 dilution series was performed (in 0.1 mmol/L HCl or DMSO). To obtain 1× concentrated compound medium 1 μl of the 1000×DMSO dilution was added to 999 μl FBM.
48 h after seeding, medium was removed by suction and 90 μl compound- or starvation medium was added for 30 min
30 min after test compound pre-incubation (90 μL), 10 μl of 10× concentrated FGF plus IL-1β was added and the cells were stimulated for 92 h at a temperature of 37° C.
For this purpose the FGF and IL-1β stock solutions (250 μg/mL and 10 μg/mL respectively) were diluted in starvation medium to reach a concentration of 200 ng/mL and 300 pg/mL for FGF and IL-1β respectively. 10 μL of this stimulus medium or starvation medium was added to the indicated wells. The test compound concentration was maintained during the stimulation.
The final FGF concentration was 20 ng/mL. The final IL-1β concentration was 30 pg/mL.
Proliferation was determined by a colorimetric immunoassay for the quantification of cell proliferation, based on the measurement of BrdU incorporation during DNA synthesis. The assay was carried out according to the manufacturer's instructions.
72 h after stimulation a 1:100 dilution of BrdU in starvation medium (resulting concentration 100 μmol/L) was performed and 10 μl added per well (end-concentration per well 10 μmol/l). About 18 h later the BrdU medium was removed by suction. Cells were fixed and denatured for 30 min at room temperature with FixDenat reagent. The reagent was removed by tapping and the anti-BrdU-POD working solution was added (incubation time: 90 min). The plate was washed three times with 200 μL washing buffer before incubation with substrate solution for about 10 min. […]

For series [2], the system named is TGF-β-stimulated α-SMA protein expression of human lung fibroblasts from patients with IPF. As to the kind of experiment: α-SMA (smooth muscle actin) protein assay (Western replacement assay, MSD), Experiment A. Type of series: cell-based. To be noted: for IC50: n=5 donors; for sign of inhibition of TGF-β-stimulated α-SMA protein expression over the concentration/inhibition curve: low PDE4-inhibitor concentrations, alone or in combination with Nintedanib. The protocol:
as §1, §2
α-SMA protein was determined by a Western-replacement assay (MSD) using monoclonal anti smooth muscle actin antibodies.
IPF-lung fibroblasts (passage 5 to 8) were seeded in 96-well cell culture plates at 4500 cells/well with 100 μL/well FBM+supplements. 24 h after seeding the cells were washed once with FBM medium without supplements and starved for 24 h.
In experiment A1) the PDE4B-inhibitor of formula III was used as a “test compound” • in rising concentrations either alone (see full circles and black solid curve in FIG. 1) or • in rising concentrations together with a fixed concentration of 100 nMol/L of Nintedanib (see empty circles and grey solid line in FIG. 1). Experiment A2)
In experiment A2) Apremilast was used as a “test compound” • in rising concentrations either alone (see full circles and black solid curve in FIG. 2) or • in rising concentrations together with a fixed concentration of 100 nMol/L of Nintedanib (see empty circles and grey solid line in FIG. 2). Experiment A3)
In experiment A3) Roflumilast-N-oxide was used as a “test compound” • in rising concentrations either alone (see full circles and black solid curve in FIG. 3) or • in rising concentrations together with a fixed concentration of 100 nMol/L of Nintedanib (see empty circles and grey solid line in FIG. 3). Test Compound Dilutions
All “test compounds” (the PDE4B-inhibitor of formula III, Apremilast or Roflumilast) were prepared 1000× in 0.1 mmol/L HCl or DMSO and a 1:3.16 dilution series was performed (in 0.1 mmol/L HCl or DMSO). To obtain 2× concentrated compound-medium a 1:500 dilution (2 μl of the 1000× dilution was added to 998 μl FBM plus 2 nmol/L PGE2) was prepared.
48 h after seeding, the medium was aspirated and FBM (100 μl per well) was added. After 1 h incubation at 37° C., 90 μl medium containing 2× concentrated compounds (at different concentrations) plus 2× concentrated PGE2 (2 nmol/L) was added for 30 min Final concentration for PGE2 was 1 nmol/L.
30 min after test compound pre-incubation (190 μL), 10 μl of 20× concentrated TGF-β was added and the cells stimulated for 48 h at a temperature of 37° C.
For this purpose the TGF-β stock solution (20 μg/mL reconstituted in 4 mmol/L sterile HCL) was diluted 1:200 in starvation medium to reach a concentration of 100 ng/mL. 10 μL of this TGF-β medium or starvation medium was added to indicated wells. The test compound concentration was maintained during the stimulation. The final TGF-β concentration was […].
48 h after stimulation supernatants were removed and stored at −80° C. for further experiments. Cells were washed once with ice cold PBS and 50 μl RIPA buffer containing 1× protease inhibitor was added per well. Lysates were incubated for 5 minutes on ice before stored at −80° C.
After thawing, 25 μl of each lysate was transferred to the membrane of the multi-array 96 well plate (MSD) and incubated for 2 h at room temperature with gentle shaking. After the incubation time, plates were washed 3 times with 200 μl 1× Tris-wash buffer (MSD) and 150 μl of 3% blocking buffer was added for 1 h. After blocking, plates were washed 3 times with 200 μl 1× Tris-wash buffer and 25 μl of the antibody solution (per plate 0.75 ml 3% blocking buffer, 2.25 ml 1× Tris-wash buffer, 1.2 μl anti-α-SMA antibody (1:2500), 15 μl goat anti-mouse sulfo-tag antibody (1:200) was added for 1 h. After AB-incubation plates were washed 3 times with 200 μl 1× Tris-wash buffer and 150 μl of 1×MSD read buffer was added per well. Plates were measured with Sector Imager (MSD). […]

For series [3], the system named is rat. To be noted: in vivo; cited from earlier work.
The subject of series [4] is human COPD-patients. To be noted: 500 μg daily; cited from earlier work.

The source of these data is patent publication US12233068B2, “Combination of active agents for the treatment of progressive fibrosing interstitial lung diseases (PF-ILD)” (Boehringer Ingelheim International GmbH, priority 2017, dated 2025).

Like-named read-outs stand apart in the source and are kept apart here.

With `CCOc1cc([C@@H](CS(C)(=O)=O)N2C(=O)c3cccc(NC(C)=O)c3C2=O)ccc1OC` [Apremilast], the IC50 in series [1] (Homo sapiens, Fibroblast, PDE4 inhibitor alone, IPF lung fibroblasts, read-out: IC50, inhibition of FGF plus IL-1β-stimulated proliferation) was found to be 1800 nM; in series [1] (Homo sapiens, Fibroblast, PDE4 inhibitor in rising concentrations with fixed 100 nMol/L Nintedanib, read-out: IC50, inhibition of FGF plus IL-1β-stimulated proliferation, combination with Nintedanib), 1600 nM; in series [2] (Homo sapiens, Fibroblast, PDE4 inhibitor alone, IPF lung fibroblasts, read-out: IC50, inhibition of TGF-β-stimulated α-SMA protein expression), 3000 nM; in series [2] (Homo sapiens, Fibroblast, PDE4 inhibitor in rising concentrations with fixed 100 nMol/L Nintedanib, read-out: IC50, inhibition of TGF-β-stimulated α-SMA protein expression, combination with Nintedanib), 2000 nM. Also, the “IC50 of PDE4 inhibitor alone compared to IC50 of its combination with Nintedanib (proliferation)” value in series [1] turned out to be 1.13 fold. In addition, in series [1], the “effect of the combination with Nintedanib on inhibition of fibroblast proliferation versus calculated additive curve” value was “additive effect”. Besides, the “sign of inhibition of TGF-β-stimulated α-SMA protein expression over the concentration/inhibition curve” value in series [2] was “negative inhibitions”.

For the compound `COC(=O)c1ccc2c(c1)NC(=O)/C2=C(\Nc1ccc(N(C)C(=O)CN2CCN(C)CC2)cc1)c1ccccc1` [Nintedanib], the “inhibitory effect on human lung fibroblasts proliferation (in words)” value in series [1] (Nintedanib alone, 100 nMol/L) is reported as “clear inhibitory effect”. For the same compound, the “inhibitory effect on TGF-β-stimulated α-SMA protein expression (in words)” value in series [2] (100 nM Nintedanib alone) is listed as “no inhibitory effect”. Also, the “Inhibition of TGF-β-stimulated α-SMA protein expression” value in series [2] (100 nMol/L Nintedanib alone, FIGS. 1, 2 and 3) was at most 0.

As for `O=C(Nc1c(Cl)c[n+]([O-])cc1Cl)c1ccc(OC(F)F)c(OCC2CC2)c1` [Roflumilast N-Oxide], the “IC50 of PDE4 inhibitor alone compared to IC50 of its combination with Nintedanib (proliferation)” value in series [1] is recorded as 0.82 fold. In addition, the IC50 in series [1] (PDE4 inhibitor alone, IPF lung fibroblasts, read-out: IC50, inhibition of FGF plus IL-1β-stimulated proliferation) came out at 0.44 nM; in series [1] (PDE4 inhibitor in rising concentrations with fixed 100 nMol/L Nintedanib, read-out: IC50, inhibition of FGF plus IL-1β-stimulated proliferation, combination with Nintedanib), 0.534 nM; in series [2] (PDE4 inhibitor alone, IPF lung fibroblasts, read-out: IC50, inhibition of TGF-β-stimulated α-SMA protein expression), 14 nM; in series [2] (PDE4 inhibitor in rising concentrations with fixed 100 nMol/L Nintedanib, read-out: IC50, inhibition of TGF-β-stimulated α-SMA protein expression, combination with Nintedanib) it was 8.5 nM. In addition, the “effect of the combination with Nintedanib on inhibition of fibroblast proliferation versus calculated additive curve” value in series [1] is given as “additive effect”. Besides, the “sign of inhibition of TGF-β-stimulated α-SMA protein expression over the concentration/inhibition curve” value in series [2] is recorded as “negative inhibitions”.

Consider `O=C(Nc1c(Cl)cncc1Cl)c1ccc(OC(F)F)c(OCC2CC2)c1` [Roflumilast], for which the “gastrointestinal side effects in similar gastric emptying and intestinal transit experiments” value in series [3] was “clear trend to show gastrointestinal side effects”. In series [4], the “patients with decreased weight” value was 7.5%, the patients with diarrhea is recorded as 9.5%, the patients with headache is on record as 4.4% and the patients with nausea is reported as 4.7%.
